From US10532082B2, “SOCS1-derived peptide for use in chronic complications of diabetes” (Fundació Hospital Universitari Vall d'Hebron-Institut de …, priority 2014, dated 2020)
Where no end group is shown, it is not given here. [ ]: non-standard residue; d: D form. lysine‑palmitate = lysine-palmitate bound at the N-terminal end; pY = N[C@@H](Cc1ccc(OP(=O)(O)O)cc1)C(=O)O

Experiments:
Type in all cases: in vivo
[1] = tested on: diabetic mice (db/db); assay: Glial activation by GFAP immunofluorescence in retina, topical eye drops
Method: (§1) 8-week old diabetic mice (db/db) received the miS1 peptide in the form of eye drops (5 μL drops in each eye; 10 mg/mL; twice a day for 15 days; n=7 mice). Diabetic mice treated with the non-functional peptide Mut (n=7), treated with vehicle and non-diabetic mice (db/+) were used as controls. The eye drops were directly administered on the upper surface of the cornea of each eye using a micropipette. The weight and glycemia (colorimetric assay) were controlled throughout the study period. On day 15, the drop with the miS1 peptide or vehicle was administered about two hours before autopsy. […]
Glial activation was evaluated by means of GFAP (Glial fibrillar acidic protein) immunofluorescence following the methodology described in other studies (Bogdanov et al. PLoS One. 2014; 9:e97302). […] The images of diabetic and control samples were taken with identical parameters and the topographic distribution of the GFAP labelling was analyzed in a scale of 0 to 5 (Anderson et al. Clin Ophthalmol 2008; 2(4):801-16). […] Apoptosis was determined by means of TUNEL (Terminal Transferase dUTP Nick-EndLabeling; fluorescence kit) immunohistochemistry using the previously described method (Bogdanov et al. PLoS One. 2014; 9:e97302) and subsequent quantification under a fluorescence microscope. […]

[2] = tested on: diabetic mice (db/db); assay: Retinal glutamate metabolism (GLAST immunofluorescence, glutamate by UPLC); conditions: eye drops 15 days
Method: as §1
The glutamate metabolism was evaluated in order to investigate the mechanisms through which the miS1 peptide produces neuroprotection. The glutamate concentration was determined by means of ultra-high performance liquid chromatography (UPLC) (Acquity-UPLC, Waters) MassTrak amino acid system). The GLAST (Glutamate/Aspartate transporter) was evaluated by means of immunofluorescence.
The paraffin sections were deparaffinized in xylene and rehydrated in a gradual series of ethanol. […] The GLAST immunofluorescence was quantified by means of laser confocal microscopy (Olympus FluoView™ FV1000 confocal microscope, Hamburg, Germany) using the ImageJ software.

[3] = tested on: streptozotocin diabetic apoE-deficient mice; assay: Metabolic and renal data in mice with type 1 diabetes, intraperitoneal treatment; conditions: STZ apoE mice, 65 μg/day i.p. every 2 days, 8 weeks
Method: (§2) Apolipoprotein E (apoE)-deficient male mice of 8 weeks of age were made diabetic through streptozotocin injection (125 mg/kg weight in 10 mM citrate, pH 4.5, two consecutive days). After 2 weeks, animals with glycemia greater than 350 mg/dL were randomly distributed in two groups (n=9 animals per group): treated animals (miS1 peptide: 65 μg/day, 200 μL, intraperitoneally, every 2 days for 8 weeks) and controls (vehicle). The weight and glycemia (colorimetric assay) were controlled throughout the study period.
At the end of the study, the anesthetized animals were perfused with saline and sacrificed, processing the tissues immediately. In renal cortex (paraffin sections, 5 μm) the glomerular and tubulointerstitial morphology was studied by means of PAS and Masson trichrome staining and the lesions were evaluated in a double-blind and semi-quantitative manner in a scale of 0-3. Renal fibrosis was determined by means of Picro-Sirius red staining and the infiltrating inflammatory cells (F4/80+ macrophages and CD3+ T-lymphocytes) by immunohistochemistry. In the aorta, the root/arch zone (serial cryosections of 8 μm from the valves to an extension of 1000 μm) was stained with Oil-red-O/hematoxylin and the area of the atherosclerotic lesion was quantified (Metamorph program). Plaque stability was assessed by collagen fiber staining with Picro-Sirius red and α-actin immunofluorescence. The inflammatory component was determined by means of immunohistochemistry for monocyte/macrophages (Moma2). The Image Pro-Plus program was used for quantifying positive stainings. The biochemical parameters in serum (glycated hemoglobin, cholesterol and creatinine) and in urine (albumin and creatinine) were determined by means of conventional commercial kits.

[4] = tested on: STAT1; assay: Renal phosphorylated STAT1 immunodetection in diabetic mice; conditions: STZ apoE mice, i.p. 8 weeks; kidney sections, vs vehicle
Method: as §2

## miS1: SEQ ID NO 1 DTHFRTFRSHSDYRRI, kinase inhibitory region of murine SOCS1, bound to lysine-palmitate at the N-terminal end, tyrosine phosphorylated ({lysine‑palmitate}-DTHFRTFRSHSD[pY]RRI)
[1]; eye drops 50 μg in 5 μL/eye twice a day, 15 days, scale 0 to 5
  GFAP score: 3
[1]; eye drops 15 days, compared with groups that received Mut peptide or vehicle
  reduction of GFAP glial protein staining: about 80%
[2]; UPLC
  intraretinal glutamate levels: reduced but without reaching statistical significance
[2]; immunofluorescence
  GLAST content in retina: downregulation was prevented
[3]
  weight loss caused by chronic diabetes: less pronounced
[3]; end of study
  ALT: 97 ± 17 U/L
  AST: 176 ± 20 U/L
  Blood glucose: 549 ± 29 mg/dL
  GHbA1c: 503 ± 76 µg/mL
  HDL cholesterol: 11 ± 1 mg/dL
  LDL cholesterol: 597 ± 61 mg/dL
  Total cholesterol: 611 ± 59 mg/dL
  Triglycerides: 89 ± 23 mg/dL
  Weight: 21.9 ± 0.6 g
[3]; p < 0.01 vs control
  Urine albumin-creatinine ratio: 16.2 ± 61.1 µg/µmol
[3]; p < 0.02 vs control
  Serum creatinine: 0.24 ± 0.04 mg/dL
[3]; p < 0.05 vs control
  Kidney-body mass ratio: 16.4 ± 1.3 mg/g
[3]; vs vehicle
  decrease in albumin levels (renal function): 28%
[4]
  renal STAT1 activation: reduction
